Series [1] has as its target mu-opioid receptor (Homo sapiens, UniProt P35372). The series can be described thus: mu-opioid receptor agonist activity.
Series [2] deals with plasma membrane of several mammalian cell types. The note with it: energy-independent manner; cited from earlier work.
Series [3] relates to Human subjects at risk of having, suspected of having, or diagnosed as having DOA. The series can be described thus: Treatment and prevention of DOA in human subjects, ophthalmic solution (Example 2). It counts as in vivo. Particulars: 1 drop of 1%, 3%, or 5% ophthalmic solution three times per day for 18 months. How it is done:
Human subjects at risk of having (e.g., diagnosed with an OPA1 gene mutation, but who are not yet symptomatic, e.g., no visual impairment), suspected of having, or diagnosed as having DOA are administered a therapeutically effective amount of an aromatic-cationic peptide of the present technology, such as D-Arg-2′,6′-Dmt-Lys-Phe-NH2, alone or in conjunction with one or more additional therapeutic agents. Subjects will receive 1 drop of 1%, 3%, or 5% D-Arg-2′,6′-Dmt-Lys-Phe-NH2 ophthalmic solution in a randomly selected study eye three times per day for 18 months. The remaining eye of these subjects serves as the untreated internal control. The patients in the control group will be administered 1 drop of vehicle solution in one of their eyes (fellow control eye) three times per day over the course of the 18 month study. Subjects are assessed weekly for signs and symptoms associated with DOA according to one or more criteria described herein (e.g., one or more of visual loss, optic nerve atrophy, palor of the neuroretianl rim, presence of temporal pigmentary grey cresent, thinning of the fiber layer at the optic nerve rim, papillary excavation, scotoma, changes in color vision, etc.).

Series [4] relates to reactive oxygen species. Particulars: cited from earlier work.
For series [5] the following is noted: cited from earlier work.
Series [6] concerns LHON patients. Particulars: cited from earlier work.
For series [7], the system named is LHON patients. Particulars: 85 LHON patients, 900 mg/d for 24 weeks; cited from earlier work.

Non-standard residues stand in square brackets, D forms with d. No end group written: not given here.

Sequence of mu-opioid receptor (P35372 whole entry, species assumed): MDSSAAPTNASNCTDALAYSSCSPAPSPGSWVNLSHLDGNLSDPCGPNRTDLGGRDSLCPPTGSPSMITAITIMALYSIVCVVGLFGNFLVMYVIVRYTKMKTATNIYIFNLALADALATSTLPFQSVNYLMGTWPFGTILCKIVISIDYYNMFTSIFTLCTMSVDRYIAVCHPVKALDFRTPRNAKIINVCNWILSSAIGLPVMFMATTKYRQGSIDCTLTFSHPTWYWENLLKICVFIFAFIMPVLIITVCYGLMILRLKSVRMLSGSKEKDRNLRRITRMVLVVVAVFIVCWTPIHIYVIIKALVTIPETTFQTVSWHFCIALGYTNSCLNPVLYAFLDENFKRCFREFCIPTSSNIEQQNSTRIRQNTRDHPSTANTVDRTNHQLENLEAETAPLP

With Tyr-D-Arg-Phe-Lys-NH2, the “mu-opioid receptor agonist activity” value in series [1] is reported as “has mu-opioid receptor agonist activity”.

With F[dR]FK-NH2, the “mu-opioid receptor agonist activity” value in series [1] is given as “does not have mu-opioid receptor agonist activity”.

With 2′,6′-Dmt-D-Arg-Phe-Lys-NH2, in series [2], the “penetration of the plasma membrane” value was “readily penetrates”.

As for “D-Arg-2′,6′-dimethyltyrosine-Lys-Phe-NH2 [D-Arg-2′,6′-Dmt-Lys-Phe-NH2]”, the “mu-opioid receptor agonist activity” value in series [1] was “does not have mu-opioid receptor agonist activity”. In series [3], the “onset and severity of the symptoms of DOA” value is on record as “prevent the onset of, delay the onset of, and/or reduce the severity of the symptoms of DOA”.

Regarding `Cc1c(C)c2c(c(C)c1O)CCC(C)(C(=O)O)O2` (centres unmarked) [Trolox], the “protective effects in vitro” value in series [4] is “modest protective effects”.

On to `COC1=C(OC)C(=O)C(C/C=C(\C)CC/C=C(\C)CC/C=C(\C)CC/C=C(\C)CC/C=C(\C)CC/C=C(\C)CC/C=C(\C)CC/C=C(\C)CC/C=C(\C)CCC=C(C)C)=C(C)C1=O` [coenzyme Q-10], for which the “protective effects in vitro” value in series [4] is “modest protective effects”. Moreover, in series [5] (exogenous), the “delivery crossing lipid membranes to mitochondria” value is recorded as “poor delivery”.

For `N[C@@H](CCC(=O)N[C@@H](CS)C(=O)NCC(=O)O)C(=O)O` [glutathione], in series [4], the “protective effects in vitro” value is reported as “modest protective effects”.

For `COC1=C(OC)C(=O)C(CCCCCCCCCCO)=C(C)C1=O` [idebenone], the “diameter of the central scotomas after treatment” value in series [6] (one 11778/ND4 LHON patient, from about 20 degrees) was “less than 5 degrees”. In series [6] (seven LHON patients, about 450 mg/d), the “recovery of visual acuity, color vision, and visual fields” value was “showed recovery of visual acuity, color vision, and visual fields”. Moreover, the “final visual acuity vs placebo group” value in series [7] is on record as “better final visual acuity than the placebo group”. In series [5] (compared with coenzyme Q10), the delivery to mitochondria entry was “higher delivery to mitochondria” and the “efficiency in crossing the blood-brain barrier” value is given as “higher efficiency in crossing the blood-brain barrier”.

Values taken from US20190328822A1, “METHODS AND COMPOSITIONS FOR PREVENTING OR TREATING DOMINANT OPTIC ATROPHY” (STEALTH BIOTHERAPEUTICS CORP, priority 2014, published 2019).
